Data: PMC7029851, “Antibacterial activity of novel dual bacterial DNA type II topoisomerase inhibitors” (PLoS ONE, 2020)
pIC50: −log10 of the molar value. Converted amounts (≈) assume the structure as drawn. Like-named read-outs stand apart in the source and are kept apart here.

Key:
[1] = target: T1, E. coli DNA gyrase (Escherichia coli, UniProt P0AES4); assay: E. coli DNA gyrase supercoiling gel assay; format: biochemical
T1 construct: purchased Inspiralis (Norwich, UK)
Protocol: (§1) S. aureus and E. coli DNA gyrase supercoiling and topo IV decatenation assay kits, as well as human topoisomerase II decatenation assay kits, were provided by Inspiralis (Norwich, UK). Assays were performed according to the manufacturer’s instructions. The compounds were serially diluted (1:3 dilutions starting from a 300 μM final concentration) and assayed in a reaction mixture to obtain concentration-response curves in two different replicate experiments. The final concentration of DMSO in the assays was 1% (v/v). The reactions were terminated by the addition of 30 μl chloroform/isoamyl alcohol (26:1) and 30 μl Stop Dye (40% sucrose, 100 mM Tris HCl pH 7.5, 1 mM EDTA, 0.5 μg/ml bromophenol blue), after which the samples were loaded onto a 1.0% TAE ([…]) gel that was then run at 80 V for 2 hours. DNA bands were visualized by ethidium bromide staining the gel for 10 minutes, which was then destained for 10 minutes in water and analysed using gel documentation equipment (Syngene, Cambridge, UK). The DNA in each band was quantitated using Syngene Gene Tools software. Raw gel data (fluorescent band volumes) were converted by the software to percentages of the control (the fully supercoiled or decatenated DNA band). […] The global curve fit non-linear regression tool was used to calculate the IC50 values. The results are expressed as the average values obtained after calculating the IC50 from each replicate run.

[2] = test system: S. aureus ATCC 29213; assay: MIC, broth microdilution; format: cell-based, Staphylococcus aureus; conditions: for MIC: Staphylococcus aureus
Protocol: (§2) MICs were determined by the broth microdilution method (the agar dilution method was used only for N. gonorrhoeae) according to CLSI guidelines.

[3] = test system: N. gonorrhoeae WHO N; assay: MIC, agar dilution; format: cell-based; conditions: Neisseria gonorrhoeae, ciprofloxacin-resistant
Protocol: as §2

[4] = test system: N. gonorrhoeae WHO K; assay: MIC, agar dilution; format: cell-based; conditions: Neisseria gonorrhoeae, ciprofloxacin-resistant
Protocol: as §2

[5] = test system: N. gonorrhoeae WHO L; assay: MIC, agar dilution; format: cell-based; conditions: Neisseria gonorrhoeae, ciprofloxacin-resistant
Protocol: as §2

[6] = test system: N. gonorrhoeae ATCC 49226; assay: MIC, agar dilution; format: cell-based; conditions: Neisseria gonorrhoeae, ATCC49226; N. gonorrhoeae ATCC 49226, ciprofloxacin-susceptible
Protocol: as §2

[7] = test system: N. gonorrhoeae ATCC 19424; assay: MIC, agar dilution; format: cell-based; conditions: Neisseria gonorrhoeae, ATCC19424; N. gonorrhoeae ATCC 19424, ciprofloxacin-susceptible
Protocol: as §2

[8] = target: T2, E. coli Topoisomerase IV (Escherichia coli, UniProt P0AFI2); assay: E. coli topoisomerase IV decatenation gel assay; format: biochemical
T2 construct: purchased Inspiralis (Norwich, UK)
Protocol: as §1

[9] = target: T3, Human Topoisomerase II (Homo sapiens, UniProt P11388); assay: Human topoisomerase II decatenation gel assay; format: biochemical
T3 construct: purchased Inspiralis (Norwich, UK)
Protocol: as §1

[10] = test system: E. faecalis clinical isolates (n = 12) vanA (6)/vanB (6); assay: MIC, multidrug-resistant clinical isolates; format: cell-based; conditions: Enterococcus faecalis; for MIC: read-out: MIC range
Protocol: (§3) The bacterial reference strains used in this study were purchased from ATCC (American Type Culture Collection) via LGC Standards (Middlesex, UK). […] Clinical MDR isolates were provided by Aptuit, the IHMA Europa Sàrl repository (Epalinges, Switzerland) and the Statens Serum Institute (Copenhagen, Denmark).
as §2
(§4) The results obtained using clinical isolates are reported as MIC50 and MIC90 values.

[11] = test system: E. faecium clinical isolates (n = 12) vanA (6)/vanB (6); assay: MIC, multidrug-resistant clinical isolates; format: cell-based; conditions: Enterococcus faecium; for MIC: read-out: MIC range
Protocol: as §3, §2, §4

[12] = test system: E. coli TolC- mutant; assay: microbe, parasite or virus in culture; format: cell-based; conditions: Escherichia coli
Protocol: as §3, §2

[13] = target: T4, S. aureus Topoisomerase IV (Staphylococcus aureus, UniProt P0C1U9); assay: S. aureus topoisomerase IV decatenation gel assay; format: biochemical
T4 construct: purchased Inspiralis (Norwich, UK)
Protocol: as §1

[14] = target: T5, S. aureus DNA gyrase (Staphylococcus aureus, UniProt P20831); assay: S. aureus DNA gyrase supercoiling gel assay; format: biochemical
T5 construct: purchased Inspiralis (Norwich, UK)
Protocol: as §1

[15] = test system: N. gonorrhoeae clinical isolates (n = 38); assay: microbe, parasite or virus in culture; format: cell-based, Neisseria gonorrhoeae; conditions: for MIC50 / MIC90: Neisseria gonorrhoeae
Protocol: as §3, §2, §4

[16] = test system: H. influenzae ATCC 49766; assay: MIC, broth microdilution; format: cell-based; conditions: Haemophilus influenzae, ATCC49766; H. influenzae ATCC 49766, ciprofloxacin-susceptible
Protocol: as §2

[17] = test system: E. faecalis ATCC 29212; assay: MIC, broth microdilution; format: cell-based; conditions: Enterococcus faecalis, ATCC29212; E. faecalis ATCC 29212, ciprofloxacin-susceptible
Protocol: as §2

[18] = test system: K. pneumoniae ATCC 700603; assay: MIC, broth microdilution; format: cell-based; conditions: Klebsiella pneumoniae, ATCC700603; K. pneumoniae ATCC 700603, ciprofloxacin-susceptible
Protocol: as §2

[19] = test system: S. pneumoniae ATCC 49619; assay: MIC, broth microdilution; format: cell-based; conditions: Streptococcus pneumoniae, ATCC49619; S. pneumoniae ATCC 49619, ciprofloxacin-susceptible
Protocol: as §2

[20] = test system: P. aeruginosa ATCC 27853; assay: MIC, broth microdilution; format: cell-based; conditions: Pseudomonas aeruginosa, ATCC27853; P. aeruginosa ATCC 27853, ciprofloxacin-susceptible
Protocol: as §2

[21] = test system: S. aureus BAA-1720; assay: MIC, broth microdilution; format: cell-based; conditions: Staphylococcus aureus, BAA1720; S. aureus BAA-1720, ciprofloxacin-resistant
Protocol: as §2

[22] = test system: E. coli ATCC 25922; assay: MIC, broth microdilution; format: cell-based; conditions: Escherichia coli, ATCC25922; E. coli ATCC 25922, ciprofloxacin-susceptible
Protocol: as §2

[23] = ATCC29213, S. aureus ATCC 29213, ciprofloxacin-susceptible
[24] = ATCC29213, S. aureus ATCC29213, ref strain, S4 File
[25] = average of two replicate experiments, read-out: IC50 Human Topoisomerase II decatenation (average)
[26] = replicate Assay 1, read-out: IC50 Human Topoisomerase II (TopoII) decatenation, Assay 1
[27] = replicate Assay 2, read-out: IC50 Human Topoisomerase II (TopoII) decatenation, Assay 2
[28] = replicate Assay 1, read-out: IC50 S. aureus Topoisomerase IV decatenation, Assay 1
[29] = replicate Assay 2, read-out: IC50 S. aureus Topoisomerase IV decatenation, Assay 2
[30] = replicate Assay 1, read-out: IC50 S.aureus gyrase Supercoiling, Assay 1
[31] = replicate Assay 2, read-out: IC50 S.aureus gyrase Supercoiling, Assay 2
[32] = IC50 E. coli Gyrase Supercoiling (average), average of two replicate experiments
[33] = IC50 E. coli gyrase Supercoiling, Assay 1, replicate Assay 1
[34] = IC50 E. coli gyrase Supercoiling, Assay 2, replicate Assay 2
[35] = IC50 E. coli Topoisomerase IV decatenation (average), average of two replicate experiments
[36] = IC50 E. coli Topoisomerase IV decatenation, Assay 1, replicate Assay 1
[37] = IC50 E. coli Topoisomerase IV decatenation, Assay 2, replicate Assay 2
[38] = average of two replicate experiments, read-out: IC50 S. aureus Topoisomerase IV decatenation (average)
[39] = average of two replicate experiments, read-out: IC50 S. aureus Gyrase Supercoiling (average)

T5 sequence (P20831 whole entry): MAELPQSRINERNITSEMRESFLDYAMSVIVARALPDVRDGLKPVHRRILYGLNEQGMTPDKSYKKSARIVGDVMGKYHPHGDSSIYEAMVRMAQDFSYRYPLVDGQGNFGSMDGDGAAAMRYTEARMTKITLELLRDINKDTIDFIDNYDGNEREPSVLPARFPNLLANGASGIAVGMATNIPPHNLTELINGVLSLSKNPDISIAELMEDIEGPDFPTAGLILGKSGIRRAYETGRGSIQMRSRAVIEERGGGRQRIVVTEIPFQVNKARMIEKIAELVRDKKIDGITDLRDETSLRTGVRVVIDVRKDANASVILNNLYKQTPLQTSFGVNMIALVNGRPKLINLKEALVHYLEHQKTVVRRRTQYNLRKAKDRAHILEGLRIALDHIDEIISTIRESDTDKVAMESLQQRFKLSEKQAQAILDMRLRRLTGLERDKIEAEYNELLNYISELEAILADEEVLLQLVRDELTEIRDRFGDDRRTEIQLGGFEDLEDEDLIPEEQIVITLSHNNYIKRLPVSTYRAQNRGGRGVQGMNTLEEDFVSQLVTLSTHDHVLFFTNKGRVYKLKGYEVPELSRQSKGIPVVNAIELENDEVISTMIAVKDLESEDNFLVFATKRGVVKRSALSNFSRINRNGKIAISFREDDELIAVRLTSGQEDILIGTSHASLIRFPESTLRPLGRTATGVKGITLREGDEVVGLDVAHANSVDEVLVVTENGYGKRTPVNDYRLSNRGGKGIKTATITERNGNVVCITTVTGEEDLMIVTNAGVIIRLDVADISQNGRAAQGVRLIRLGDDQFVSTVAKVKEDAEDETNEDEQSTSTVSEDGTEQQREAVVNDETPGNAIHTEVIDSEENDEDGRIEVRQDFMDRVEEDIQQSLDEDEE
T5 sequence (P0A0K8 whole entry partner): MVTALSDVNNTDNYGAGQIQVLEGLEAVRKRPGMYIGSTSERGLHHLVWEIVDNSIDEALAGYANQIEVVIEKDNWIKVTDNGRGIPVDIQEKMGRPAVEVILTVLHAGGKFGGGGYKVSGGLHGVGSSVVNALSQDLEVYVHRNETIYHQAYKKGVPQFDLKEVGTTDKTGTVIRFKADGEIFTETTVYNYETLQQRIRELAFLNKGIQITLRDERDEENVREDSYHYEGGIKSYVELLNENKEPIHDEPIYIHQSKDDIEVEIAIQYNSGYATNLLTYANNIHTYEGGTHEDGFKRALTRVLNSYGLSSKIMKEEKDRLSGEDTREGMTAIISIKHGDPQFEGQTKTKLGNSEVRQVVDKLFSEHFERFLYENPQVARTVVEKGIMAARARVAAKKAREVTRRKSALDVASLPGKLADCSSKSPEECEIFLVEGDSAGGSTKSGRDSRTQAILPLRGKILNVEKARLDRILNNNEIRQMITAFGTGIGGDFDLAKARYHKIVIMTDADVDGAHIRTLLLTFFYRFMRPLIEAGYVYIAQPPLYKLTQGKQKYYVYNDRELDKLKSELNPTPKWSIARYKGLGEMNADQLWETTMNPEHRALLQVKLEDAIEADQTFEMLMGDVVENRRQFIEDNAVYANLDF
T2 sequence (P20083 whole entry): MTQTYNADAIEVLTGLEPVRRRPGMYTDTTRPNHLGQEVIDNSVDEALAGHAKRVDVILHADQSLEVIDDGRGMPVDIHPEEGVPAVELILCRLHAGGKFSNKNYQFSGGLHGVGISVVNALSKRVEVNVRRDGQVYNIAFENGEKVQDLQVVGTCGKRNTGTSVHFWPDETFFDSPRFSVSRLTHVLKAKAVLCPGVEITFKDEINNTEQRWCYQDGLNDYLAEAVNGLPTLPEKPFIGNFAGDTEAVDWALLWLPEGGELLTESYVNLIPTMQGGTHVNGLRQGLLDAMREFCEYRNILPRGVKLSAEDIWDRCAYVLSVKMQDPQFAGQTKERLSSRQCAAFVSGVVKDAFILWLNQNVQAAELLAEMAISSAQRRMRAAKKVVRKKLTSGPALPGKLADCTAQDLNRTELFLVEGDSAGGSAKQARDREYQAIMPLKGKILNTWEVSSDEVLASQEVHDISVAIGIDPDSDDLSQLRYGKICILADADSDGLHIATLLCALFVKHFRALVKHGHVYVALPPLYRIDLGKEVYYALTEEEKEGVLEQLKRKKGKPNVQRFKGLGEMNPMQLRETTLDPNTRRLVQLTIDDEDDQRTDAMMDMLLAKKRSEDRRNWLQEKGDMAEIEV
T2 sequence (P0AFI2 whole entry): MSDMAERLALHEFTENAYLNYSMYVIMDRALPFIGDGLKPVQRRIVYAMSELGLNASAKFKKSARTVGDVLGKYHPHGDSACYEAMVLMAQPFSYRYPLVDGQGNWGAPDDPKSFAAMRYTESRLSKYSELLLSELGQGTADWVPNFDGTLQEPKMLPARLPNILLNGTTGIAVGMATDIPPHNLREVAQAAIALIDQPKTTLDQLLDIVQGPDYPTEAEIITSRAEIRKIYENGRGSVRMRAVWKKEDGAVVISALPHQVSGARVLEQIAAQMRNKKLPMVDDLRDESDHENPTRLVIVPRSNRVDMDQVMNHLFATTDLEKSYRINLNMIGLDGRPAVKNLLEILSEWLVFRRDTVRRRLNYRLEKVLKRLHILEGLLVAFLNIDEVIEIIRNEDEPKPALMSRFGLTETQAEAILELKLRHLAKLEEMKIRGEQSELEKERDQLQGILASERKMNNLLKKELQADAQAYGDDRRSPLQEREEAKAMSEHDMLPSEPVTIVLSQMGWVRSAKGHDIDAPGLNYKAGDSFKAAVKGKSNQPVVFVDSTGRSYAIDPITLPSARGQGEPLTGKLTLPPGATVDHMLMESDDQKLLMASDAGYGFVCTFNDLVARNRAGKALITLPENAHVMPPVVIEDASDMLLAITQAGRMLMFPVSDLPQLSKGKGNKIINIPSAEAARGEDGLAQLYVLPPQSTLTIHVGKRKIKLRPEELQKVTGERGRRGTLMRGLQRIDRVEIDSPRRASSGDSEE
T3 sequence (P11388 whole entry): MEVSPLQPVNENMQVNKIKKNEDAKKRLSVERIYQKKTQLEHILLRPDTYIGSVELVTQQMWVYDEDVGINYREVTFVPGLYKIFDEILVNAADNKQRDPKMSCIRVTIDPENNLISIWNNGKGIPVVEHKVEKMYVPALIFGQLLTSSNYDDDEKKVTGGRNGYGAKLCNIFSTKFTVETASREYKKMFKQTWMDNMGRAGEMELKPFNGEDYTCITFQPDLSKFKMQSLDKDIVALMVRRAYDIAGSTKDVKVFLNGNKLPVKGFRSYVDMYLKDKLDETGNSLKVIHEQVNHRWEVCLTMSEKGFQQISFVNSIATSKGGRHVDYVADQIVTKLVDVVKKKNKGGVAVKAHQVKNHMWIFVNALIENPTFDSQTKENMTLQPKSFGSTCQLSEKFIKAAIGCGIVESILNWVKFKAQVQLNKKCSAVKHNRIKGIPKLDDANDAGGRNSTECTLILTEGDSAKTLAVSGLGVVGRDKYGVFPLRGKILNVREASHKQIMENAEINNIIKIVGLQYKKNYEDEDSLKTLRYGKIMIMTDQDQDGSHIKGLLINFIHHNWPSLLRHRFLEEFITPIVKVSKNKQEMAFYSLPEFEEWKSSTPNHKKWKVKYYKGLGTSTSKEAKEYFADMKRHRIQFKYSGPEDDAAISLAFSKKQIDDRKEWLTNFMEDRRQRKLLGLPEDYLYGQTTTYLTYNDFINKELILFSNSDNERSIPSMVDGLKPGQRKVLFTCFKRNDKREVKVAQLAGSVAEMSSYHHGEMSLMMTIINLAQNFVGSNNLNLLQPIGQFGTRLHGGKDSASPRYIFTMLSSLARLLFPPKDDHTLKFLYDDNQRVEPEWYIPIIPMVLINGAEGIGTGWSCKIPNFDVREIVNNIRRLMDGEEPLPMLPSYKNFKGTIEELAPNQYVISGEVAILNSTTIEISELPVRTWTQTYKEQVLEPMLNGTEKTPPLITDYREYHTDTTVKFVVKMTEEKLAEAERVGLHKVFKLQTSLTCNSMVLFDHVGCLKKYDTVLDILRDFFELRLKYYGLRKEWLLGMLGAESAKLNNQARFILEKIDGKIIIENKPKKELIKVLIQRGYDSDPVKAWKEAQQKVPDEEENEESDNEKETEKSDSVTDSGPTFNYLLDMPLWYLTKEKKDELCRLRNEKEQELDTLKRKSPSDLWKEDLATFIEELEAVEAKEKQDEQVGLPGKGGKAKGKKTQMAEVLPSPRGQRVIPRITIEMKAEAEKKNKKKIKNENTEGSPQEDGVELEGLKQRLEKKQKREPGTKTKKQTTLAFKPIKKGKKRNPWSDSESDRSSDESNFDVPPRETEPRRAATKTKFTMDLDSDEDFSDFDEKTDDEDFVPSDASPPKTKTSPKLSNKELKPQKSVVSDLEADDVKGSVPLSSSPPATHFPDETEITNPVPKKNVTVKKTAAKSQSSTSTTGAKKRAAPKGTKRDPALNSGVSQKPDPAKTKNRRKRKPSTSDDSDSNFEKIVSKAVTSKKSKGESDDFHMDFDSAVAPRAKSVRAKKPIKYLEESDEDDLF

Structure (SMILES) | MIC [2, 23] | MIC [3] | MIC [4] | MIC [5] | MIC [6] | MIC [7] | pIC50 [9, 25] | pIC50 [9, 26] | pIC50 [9, 27] | MIC50 [10] | MIC90 [10] | MIC [10] | MIC50 [11] | MIC90 [11] | MIC [11] | MIC [12] | pIC50 [13, 28] | pIC50 [13, 29] | pIC50 [14, 30] | pIC50 [14, 31] | other results
O=C1COc2ncc(F)cc2N1[C@H]1CC[C@H](NCc2cc3c(=O)oc4ccc(F)cc4c3[nH]2)CC1 [Compound 1, 8-fluoro-2-({[trans-4-(7-fluoro-2-oxo-2,3-dihydro-1H-pyrido[2,3-b][1,4]oxazin-1-yl)cyclohexyl]amino}methyl)[1]benzopyrano[4,3-b]pyrrol-4(1H)-one] | 0.25 mg/L (≈ 0.52 µM) | 0.06 mg/L (≈ 0.125 µM) | 0.12 mg/L (≈ 0.25 µM) | 0.12 mg/L (≈ 0.25 µM) | 0.06 mg/L (≈ 0.125 µM) | ≤ 0.06 mg/L | 4.01 | 4.02 | 4.00 | 0.03 mg/L (≈ 0.0624 µM) | 0.25 mg/L (≈ 0.52 µM) | 0.03 to 0.25 mg/L (≈ 0.0624 to 0.52 µM) | 1 mg/L (≈ 2.08 µM) | 2 mg/L (≈ 4.16 µM) | 0.03 to 16 mg/L (≈ 0.0624 to 33.3 µM) | ≤ 0.016 mg/L | 5.66 | 5.64 | 6.60 | 6.51 | pIC50 ([1]; average of two replicate experiments, read-out: IC50 E. coli Gyrase Supercoiling (average)): 6.60; pIC50 ([1]; replicate Assay 1, read-out: IC50 E. coli gyrase Supercoiling, Assay 1): 6.47; pIC50 ([1]; replicate Assay 2, read-out: IC50 E. coli gyrase Supercoiling, Assay 2): 6.80; MIC [2, 24]: 0.25 mg/L (≈ 0.52 µM); pIC50 ([8]; average of two replicate experiments, read-out: IC50 E. coli Topoisomerase IV decatenation (average)): 5.86; pIC50 ([8]; replicate Assay 1, read-out: IC50 E. coli Topoisomerase IV decatenation, Assay 1): 5.87; pIC50 ([8]; replicate Assay 2, read-out: IC50 E. coli Topoisomerase IV decatenation, Assay 2): 5.85; pIC50 [13]: 5.65; pIC50 ([14]; IC50 S. aureus Gyrase Supercoiling (average), average of two replicate experiments): 6.55; MIC range [15]: 0.016 to 0.12 mg/L; MIC50 [15]: 0.12 mg/L (≈ 0.25 µM); MIC90 [15]: 0.12 mg/L (≈ 0.25 µM); MIC [16]: 0.25 mg/L (≈ 0.52 µM); MIC [17]: 2 mg/L (≈ 4.16 µM); MIC [18]: 4 mg/L (≈ 8.33 µM); MIC [19]: 0.5 mg/L (≈ 1.04 µM); MIC [20]: 2 mg/L (≈ 4.16 µM); MIC [21]: 0.5 mg/L (≈ 1.04 µM); MIC [22]: 0.5 mg/L (≈ 1.04 µM)
Cl.N#Cc1ccc2ccc(=O)n([C@H]3CC[C@H](NCc4cc5c(=O)oc6ccc(F)cc6c5[nH]4)CC3)c2c1 [Compound 2, 1-(trans-4-{[(8-fluoro-4-oxo-1,4-dihydro[1]benzopyrano[4,3-b]pyrrol-2-yl)methyl]amino}cyclohexyl)-2-oxo-1,2-dihydroquinoline-7-carbonitrile hydrochloride] | 0.03 mg/L | 0.03 mg/L | 0.12 mg/L | 0.06 mg/L | 0.06 mg/L | ≤ 0.06 mg/L | 5.22 | 5.22 | 5.15 | 0.12 mg/L | 0.12 mg/L | 0.06 to 0.12 mg/L | 0.12 mg/L | 0.25 mg/L | 0.06 to 1 mg/L | ≤ 0.016 mg/L | > 7.00 | > 7.00 | > 7.00 | > 7.00 | pIC50 [1, 32]: 7.30; pIC50 [1, 33]: 7.40; pIC50 [1, 34]: 7.30; MIC fold lower than that of ciprofloxacin ([2]; S. aureus ATCC 29213): approximately 10 fold; MIC [2, 24]: ≤ 0.06 mg/L; pIC50 [8, 35]: 6.89; pIC50 [8, 36]: 7.00; pIC50 [8, 37]: 6.80; pIC50 [13, 38]: > 7.00; pIC50 [14, 39]: > 7.00; MIC range [15]: 0.004 to 0.12 mg/L; MIC50 [15]: 0.06 mg/L; MIC90 [15]: 0.12 mg/L; MIC [16]: 0.5 mg/L; MIC [17]: 0.25 mg/L; MIC [18]: > 8 mg/L; MIC [19]: ≤ 0.06 mg/L; MIC [20]: 2 mg/L; MIC [21]: 0.016 mg/L; MIC [22]: 0.5 mg/L
Cl.O=c1oc2ccc(F)cc2c2[nH]c(CN[C@H]3CC[C@H](n4c(=O)ccc5ncc(F)cc54)CC3)cc12 [Compound 3, 8-fluoro-2-({[trans-4-(7-fluoro-2-oxo-1,5-naphthyridin-1(2H)-yl)cyclohexyl]amino}methyl)[1]benzopyrano[4,3-b]pyrrol-4(1H)-one hydrochloride] | 0.25 mg/L | 0.016 mg/L | 0.016 mg/L | 0.016 mg/L | 0.016 mg/L | ≤ 0.06 mg/L | 4.25 | 4.34 | 4.18 | 0.12 mg/L | 0.12 mg/L | 0.06 to 0.12 mg/L | 0.12 mg/L | 0.25 mg/L | 0.06 to 2 mg/L | ≤ 0.016 mg/L | > 7.00 | > 7.00 | > 7.00 | > 7.00 | pIC50 [1, 32]: > 7.00; pIC50 [1, 33]: > 7.00; pIC50 [1, 34]: > 7.00; pIC50 ([1]; read-out: IC50 E. coli Gyrase Supercoiling (average), average of two replicate experiments): > 7.00; pIC50 [8, 35]: > 7.00; pIC50 [8, 36]: > 7.00; pIC50 [8, 37]: > 7.00; pIC50 ([8]; read-out: IC50 E. coli Topoisomerase IV decatenation (average), average of two replicate experiments): > 7.00; pIC50 [13, 38]: > 7.00; pIC50 [14, 39]: > 7.00; MIC range [15]: 0.004 to 0.03 mg/L; MIC50 [15]: 0.016 mg/L; MIC90 [15]: 0.03 mg/L; MIC [16]: 0.12 mg/L; MIC [17]: 0.12 mg/L; MIC [18]: 2 mg/L; MIC [19]: 0.25 mg/L; MIC [20]: 4 mg/L; MIC [21]: 0.12 mg/L; MIC [22]: 0.5 mg/L
